Results reported in patent US20220008419A1, “PHARMACEUTICAL COMPOSITION FOR TREATING DIFFUSE-TYPE GASTRIC CANCER” (KANAZAWA MEDICAL UNIVERSITY, priority 2018, published 2022).

How the values were obtained:
ErbB4 (HER4) = ErbB4 (HER4) (Homo sapiens, UniProt Q15303); conditions: reported in literature; cited from earlier work
EGFR (ErbB1) = EGFR (ErbB1) (Homo sapiens, UniProt P00533); conditions: reported in literature; cited from earlier work
ErbB2 (HER2) = ErbB2 (HER2) (Homo sapiens, UniProt P04626); conditions: reported in literature; cited from earlier work
[1] = system: EGFR-overexpressing tumor xenograft; conditions: Hua Xie et al.; cited from earlier work
[2] = system: normal human gastric fibroblasts; test: In vitro growth inhibition test for fibroblasts (cell count); format: cell-based; conditions: HB-EGF 10 ng/mL, EGF receptor inhibitor 1 μM, 96 hours
cancer patients = conditions: among 55 evaluable cancer patients, phase I; cited from earlier work
GCR-1 = test: In vitro cell growth inhibition (CCK-8), non-diffuse gastric cancer cell line GCR-1; format: cell-based, human; conditions: HGF 50 ng/mL, 72 hours
Method: (§1) Five types of cell lines (NUGC4, GCIY, MKN7, GCR1 and MKN45) were subcultured in the RPMI 1640 culture medium containing 10% concentration of fetal bovine serum, 100 units/mL concentration of penicillin, and 100 units/mL concentration of antibiotic streptomycin, and used in the following experiments. The cells were periodically examined for the presence of mycoplasma infection by using MycoAlert Mycoplasma Detection Kit (Lonza). Cell growth was measured by using Cell Counting Kit-8 (CCK-8) (Dojin Kagaku Kenkyusho, Kumamoto, Japan) (Ishiyama M., et al., […], 44; 1299:1997). The cells were inoculated at a density of 5×10^4 cells/mL in a volume of 100 μL per well, and incubated at 37° C. for 24 hours in an incubator. Then, any one of three types of cell growth factors, amphiregulin (AP, 100 ng/mL, R&D Systems, Minneapolis, Minn.), heparin-binding EGF-like growth factor (HB-EGF), and hepatocyte growth factor (HGF, 50 ng/mL, R&D Systems), and any one of two types of the EGFR inhibitors, AZ5104 (0.001 to 10 μM) and AST1306 (0.001 to 10 μM)), were added to each well, and the cells were further incubated at 37° C. for 72 hours in an incubator. In addition, to the control wells, any one of the three types of cell growth factors was added, but not the EGFR inhibitor. […] Absorbance was measured at a wavelength of 450 nm by using a microplate reader (BIO-RAD Laboratories, Inc.). […]

[3] = system: ErbB2-overexpressing adenocarcinoma xenograft; conditions: Hua Xie et al.; cited from earlier work
MKN45 = test: In vitro cell growth inhibition (CCK-8), cMet gene-amplified gastric cancer cell line MKN45; format: cell-based, human; conditions: 72 hours
Method: as §1

GCIY = test: In vitro cell growth inhibition (CCK-8), diffuse gastric cancer cell line GCIY; format: cell-based, human; conditions: 72 hours; for HB-EGF-induced cell growth of GCIY / HGF-induced cell growth of GCIY / amphiregulin-induced cell growth of GCIY: inhibitor 0.001 to 10 μM; for HGF-induced cell growth of GCIY: HGF 50 ng/mL; for amphiregulin-induced cell growth of GCIY: amphiregulin 100 ng/mL; for baseline cell growth of GCIY: no growth factor added
Method: (§2) Five types of cell lines (NUGC4, GCIY, MKN7, GCR1 and MKN45) were subcultured in the RPMI 1640 culture medium containing 10% concentration of fetal bovine serum, 100 units/mL concentration of penicillin, and 100 units/mL concentration of antibiotic streptomycin, and used in the following experiments. The cells were periodically examined for the presence of mycoplasma infection by using MycoAlert Mycoplasma Detection Kit (Lonza). Cell growth was measured by using Cell Counting Kit-8 (CCK-8) (Dojin Kagaku Kenkyusho, Kumamoto, Japan) (Ishiyama M., et al., […], 44; 1299:1997). The cells were inoculated at a density of 5×10^4 cells/mL in a volume of 100 μL per well, and incubated at 37° C. for 24 hours in an incubator. Then, any one of three types of cell growth factors, amphiregulin (AP, 100 ng/mL, R&D Systems, Minneapolis, Minn.), heparin-binding EGF-like growth factor (HB-EGF), and hepatocyte growth factor (HGF, 50 ng/mL, R&D Systems), and any one of two types of the EGFR inhibitors, AZ5104 (0.001 to 10 μM) and AST1306 (0.001 to 10 μM)), were added to each well, and the cells were further incubated at 37° C. for 72 hours in an incubator. In addition, to the control wells, any one of the three types of cell growth factors was added, but not the EGFR inhibitor. Further, 10 μL of a WST-8 solution was added to each well, and the cells were cultured at 37° C. for 4 hours. Absorbance was measured at a wavelength of 450 nm by using a microplate reader (BIO-RAD Laboratories, Inc.). All the experiments were performed in triplicate, that is, the same experiment was repeated three times.

[4] = system: FVB-2/Nneu transgenic breast cancer; conditions: Hua Xie et al.; cited from earlier work
NUGC4 = test: In vitro cell growth inhibition (CCK-8), diffuse gastric cancer cell line NUGC4; format: cell-based, human; conditions: inhibitor 0.001 to 10 μM, 72 hours; for HGF-induced cell growth of NUGC4: HGF 50 ng/mL; for amphiregulin-induced cell growth of NUGC4: amphiregulin 100 ng/mL
Method: as §2

[5] = system: ErbB2-overexpressing cells; conditions: Hua Xie et al.; cited from earlier work
MKN7 = test: In vitro cell growth inhibition (CCK-8), non-diffuse gastric cancer cell line MKN7; format: cell-based, human; conditions: HGF 50 ng/mL, 72 hours
Method: as §1

[6] = system: Diffuse gastric cancer cells (NUGC4 cells); test: In vivo test: survival of mice intraperitoneally transplanted with NUGC4 cells; design: species or system Balb/c nu/nu mice; conditions: for mice alive 11 weeks after the gastric cancer cell transplantation / mice alive seven weeks after the gastric cancer cell transplantation: eight mice per therapy, treatment from day 21, AZ5104/osimertinib 10 mg/kg once a day oral, savolitinib 2.5 mg/kg once a day oral, antibody 40 mg/kg twice a week intraperitoneal; for t-test for numbers of mice alive 11 weeks after transplantation compared with the control group: p<0.05
Method: The anti-VEGF receptor 2 antibody used was anti-mouse VEGF receptor 2 antibody DC101 (GeneTex).
Diffuse gastric cancer cells (NUGC4 cells) were transplanted to Balb/c nu/nu mice (6 weeks old) by intraperitoneal administration of 2×10^6 of the cells in 200 μL of phosphate buffered saline (PBS) per mouse. On day 21 after the transplantation, ascites accumulation was confirmed, and treatment was started. The treatment was performed with the following eight kinds of therapies, and eight mice were used for each therapy.
For the control group (vehicle control), only a solution not dissolving any drug was administered once a week. The administration was continued for 4 weeks, and then for another 4 weeks.

[7] = system: non-small cell lung cancer with EGFR EX20Ins mutation; conditions: Floc'h et al.; cited from earlier work
mutant EGFR = conditions: reported in literature; cited from earlier work

Chain of EGFR (ErbB1) (P00533 25-1210): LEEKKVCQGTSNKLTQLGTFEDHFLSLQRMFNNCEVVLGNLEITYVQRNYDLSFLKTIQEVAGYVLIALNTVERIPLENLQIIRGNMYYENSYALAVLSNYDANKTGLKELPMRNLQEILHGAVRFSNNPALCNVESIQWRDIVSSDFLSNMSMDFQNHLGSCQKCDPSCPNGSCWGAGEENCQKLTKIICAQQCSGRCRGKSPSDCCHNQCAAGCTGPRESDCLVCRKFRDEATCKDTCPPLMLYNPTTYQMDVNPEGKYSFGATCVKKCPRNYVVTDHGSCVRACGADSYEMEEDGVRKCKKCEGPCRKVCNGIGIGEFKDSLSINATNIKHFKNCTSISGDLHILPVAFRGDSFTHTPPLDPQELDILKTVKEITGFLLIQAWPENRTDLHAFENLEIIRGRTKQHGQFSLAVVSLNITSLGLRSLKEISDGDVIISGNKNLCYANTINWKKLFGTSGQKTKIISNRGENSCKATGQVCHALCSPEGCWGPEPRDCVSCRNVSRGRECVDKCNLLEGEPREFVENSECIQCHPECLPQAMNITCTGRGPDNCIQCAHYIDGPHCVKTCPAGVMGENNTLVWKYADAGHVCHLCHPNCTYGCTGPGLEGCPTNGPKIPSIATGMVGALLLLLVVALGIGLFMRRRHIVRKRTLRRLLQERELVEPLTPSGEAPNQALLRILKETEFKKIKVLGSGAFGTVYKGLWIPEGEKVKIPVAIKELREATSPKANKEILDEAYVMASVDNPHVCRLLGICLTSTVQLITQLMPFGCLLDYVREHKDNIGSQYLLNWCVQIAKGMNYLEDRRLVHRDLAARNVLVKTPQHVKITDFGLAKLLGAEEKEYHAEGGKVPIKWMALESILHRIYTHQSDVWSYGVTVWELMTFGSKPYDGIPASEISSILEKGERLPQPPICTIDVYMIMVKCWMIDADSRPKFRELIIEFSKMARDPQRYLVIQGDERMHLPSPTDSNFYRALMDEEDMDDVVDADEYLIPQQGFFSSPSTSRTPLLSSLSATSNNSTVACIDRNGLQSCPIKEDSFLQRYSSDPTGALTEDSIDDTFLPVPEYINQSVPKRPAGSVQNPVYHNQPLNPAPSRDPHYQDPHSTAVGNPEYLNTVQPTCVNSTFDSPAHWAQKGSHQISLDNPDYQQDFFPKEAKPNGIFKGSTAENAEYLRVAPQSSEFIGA
Chain of ErbB2 (HER2) (P04626 23-1255): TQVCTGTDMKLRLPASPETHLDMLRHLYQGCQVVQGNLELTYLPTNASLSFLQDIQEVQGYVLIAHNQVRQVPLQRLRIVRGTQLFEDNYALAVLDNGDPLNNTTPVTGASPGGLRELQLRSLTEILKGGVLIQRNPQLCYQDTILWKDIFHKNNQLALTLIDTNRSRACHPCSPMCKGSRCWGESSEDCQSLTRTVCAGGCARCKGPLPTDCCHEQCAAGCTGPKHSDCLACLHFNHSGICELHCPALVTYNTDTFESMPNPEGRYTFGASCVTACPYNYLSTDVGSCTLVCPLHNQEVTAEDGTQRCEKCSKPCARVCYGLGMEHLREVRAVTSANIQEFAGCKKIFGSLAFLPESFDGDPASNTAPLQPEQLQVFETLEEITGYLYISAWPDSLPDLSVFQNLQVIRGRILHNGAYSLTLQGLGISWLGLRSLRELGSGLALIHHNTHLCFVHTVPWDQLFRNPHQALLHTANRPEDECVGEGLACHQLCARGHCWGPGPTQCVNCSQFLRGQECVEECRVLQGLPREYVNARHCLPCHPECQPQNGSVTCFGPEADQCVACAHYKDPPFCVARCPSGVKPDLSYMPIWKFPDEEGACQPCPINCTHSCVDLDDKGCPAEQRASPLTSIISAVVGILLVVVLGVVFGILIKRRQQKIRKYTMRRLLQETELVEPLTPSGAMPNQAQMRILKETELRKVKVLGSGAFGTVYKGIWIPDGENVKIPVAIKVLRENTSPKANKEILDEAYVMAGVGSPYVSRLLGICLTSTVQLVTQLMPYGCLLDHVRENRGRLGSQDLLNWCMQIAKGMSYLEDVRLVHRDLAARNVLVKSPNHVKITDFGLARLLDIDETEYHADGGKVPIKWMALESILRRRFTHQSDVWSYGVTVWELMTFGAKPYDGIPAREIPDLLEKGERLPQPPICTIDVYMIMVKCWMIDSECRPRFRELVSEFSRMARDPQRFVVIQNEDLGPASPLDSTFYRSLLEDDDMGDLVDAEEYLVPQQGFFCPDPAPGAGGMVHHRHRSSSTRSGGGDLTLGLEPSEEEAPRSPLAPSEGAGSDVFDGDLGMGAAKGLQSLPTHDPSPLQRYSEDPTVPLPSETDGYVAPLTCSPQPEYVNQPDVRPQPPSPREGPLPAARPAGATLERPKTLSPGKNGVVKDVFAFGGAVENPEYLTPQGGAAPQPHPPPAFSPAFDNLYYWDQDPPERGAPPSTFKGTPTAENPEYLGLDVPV
Chain of ErbB4 (HER4) (Q15303 26-1308): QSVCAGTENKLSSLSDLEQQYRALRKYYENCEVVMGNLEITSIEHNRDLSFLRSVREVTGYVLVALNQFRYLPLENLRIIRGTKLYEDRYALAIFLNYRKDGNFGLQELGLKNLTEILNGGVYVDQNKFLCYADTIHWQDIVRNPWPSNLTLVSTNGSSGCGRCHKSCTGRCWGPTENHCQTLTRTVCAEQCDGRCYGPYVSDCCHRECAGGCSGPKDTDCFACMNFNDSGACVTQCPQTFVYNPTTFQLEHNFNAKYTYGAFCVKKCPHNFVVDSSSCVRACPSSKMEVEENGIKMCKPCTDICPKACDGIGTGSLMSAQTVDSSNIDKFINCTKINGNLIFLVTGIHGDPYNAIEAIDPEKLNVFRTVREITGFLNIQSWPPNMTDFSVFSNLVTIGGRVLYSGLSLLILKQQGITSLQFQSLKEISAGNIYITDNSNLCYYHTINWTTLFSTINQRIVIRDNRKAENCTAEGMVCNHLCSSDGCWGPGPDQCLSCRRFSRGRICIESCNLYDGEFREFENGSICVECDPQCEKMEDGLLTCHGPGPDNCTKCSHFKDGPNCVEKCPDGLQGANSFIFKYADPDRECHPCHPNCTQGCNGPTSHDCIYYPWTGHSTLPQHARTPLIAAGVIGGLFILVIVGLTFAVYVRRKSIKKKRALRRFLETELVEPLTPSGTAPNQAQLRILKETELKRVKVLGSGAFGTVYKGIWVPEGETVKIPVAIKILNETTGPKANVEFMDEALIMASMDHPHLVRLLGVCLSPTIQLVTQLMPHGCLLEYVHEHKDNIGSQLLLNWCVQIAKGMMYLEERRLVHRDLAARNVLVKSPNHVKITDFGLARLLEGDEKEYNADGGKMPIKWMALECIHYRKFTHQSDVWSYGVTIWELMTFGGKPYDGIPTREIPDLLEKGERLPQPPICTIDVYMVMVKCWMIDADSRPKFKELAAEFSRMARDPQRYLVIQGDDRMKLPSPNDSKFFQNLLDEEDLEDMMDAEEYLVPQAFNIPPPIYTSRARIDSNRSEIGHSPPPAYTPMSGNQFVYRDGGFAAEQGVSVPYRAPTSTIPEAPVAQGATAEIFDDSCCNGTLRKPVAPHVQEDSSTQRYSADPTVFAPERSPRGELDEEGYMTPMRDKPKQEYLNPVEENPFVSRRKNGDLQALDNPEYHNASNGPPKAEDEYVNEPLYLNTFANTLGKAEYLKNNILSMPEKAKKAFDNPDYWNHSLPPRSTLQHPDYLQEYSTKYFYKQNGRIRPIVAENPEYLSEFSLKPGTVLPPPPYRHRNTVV

Cc1c(NC(=O)OC[C@@H]2COCCN2)cn2ncnc(Nc3ccc4c(cnn4Cc4cccc(F)c4)c3)c12 [AC480, (S)-morpholin-3-ylmethyl 4-(1-(3-fluorobenzyl)-1H-indazol-5-ylamino)-5-methylpyrrolo[1,2-f][1,2,4]triazine-6-carbamate]
inhibition of ErbB4 (HER4) (ErbB4 (HER4)): inhibit
inhibition of EGFR (ErbB1) (EGFR (ErbB1)): inhibit
inhibition of ErbB2 (HER2) (ErbB2 (HER2)): inhibit

CCN1CCN(Cc2ccc(-c3cc4c(N[C@H](C)c5ccccc5)ncnc4[nH]3)cc2)CC1 [AEE788, (R)-6-(4-((4-ethylpiperazin-1-yl)methyl)phenyl)-N-(1-phenylethyl)-7H-pyrrolo[2,3-d]pyrimidin-4-amine]
inhibition of ErbB4 (HER4) (ErbB4 (HER4)): inhibit
inhibition of EGFR (ErbB1) (EGFR (ErbB1)): inhibit
inhibition of ErbB2 (HER2) (ErbB2 (HER2)): inhibit

C=CC(=O)Nc1ccc2ncnc(Nc3ccc(OCc4cccc(F)c4)c(Cl)c3)c2c1.Cc1ccc(S(=O)(=O)O)cc1 [AST1306, 2-propenamide, N-[4-[[3-chloro-4-[(3-fluorophenyl)methoxy]phenyl]amino]-6-quinazolinyl]-, 4-methylbenzenesulfonate (1:1)]
tumor growth in EGFR-overexpressing tumor xenografted mice [1]: weakly inhibited
HB-EGF-induced cell growth of normal human gastric fibroblasts [2]: inhibited
inhibition of ErbB4 (HER4) (ErbB4 (HER4)): irreversible inhibitor
partial remission (cancer patients): 7 patients
stability (stability over 6 months or longer) (cancer patients): 7 patients
inhibition of EGFR (ErbB1) (EGFR (ErbB1)): irreversible inhibitor
concentration at which HGF-induced cell growth of GCR-1 was inhibited (GCR-1): ≥ 0.3 µM
tumor growth in ErbB2-overexpressing adenocarcinoma xenografted mice [3]: potently inhibited
inhibition of ErbB2 (HER2) (ErbB2 (HER2)): irreversible inhibitor
concentration at which cell growth of MKN45 was inhibited (MKN45): ≥ 1 µM
HB-EGF-induced cell growth of GCIY (GCIY): inhibited
HGF-induced cell growth of GCIY (GCIY): inhibited
amphiregulin-induced cell growth of GCIY (GCIY): inhibited
baseline cell growth of GCIY (GCIY): inhibited
tumor growth in FVB-2/Nneu transgenic breast cancer mice [4]: potently inhibited
HB-EGF-induced cell growth of NUGC4 (NUGC4): inhibited
HGF-induced cell growth of NUGC4 (NUGC4): inhibited
amphiregulin-induced cell growth of NUGC4 (NUGC4): inhibited
growth inhibitory effect in ErbB2-overexpressing cells [5]: more potent
concentration at which HGF-induced cell growth of MKN7 was inhibited (MKN7): ≥ 0.3 µM

C=CC(=O)Nc1cc(Nc2nccc(-c3c[nH]c4ccccc34)n2)c(OC)cc1N(C)CCN(C)C [AZ5104, N-(5-(4-(1H-indol-3-yl)pyrimidin-2-ylamino)-2-((2-(dimethylamino)ethyl)(methyl)amino)-4-methoxyphenyl)acrylamide]
HB-EGF-induced cell growth of normal human gastric fibroblasts [2]: inhibited
mice alive 11 weeks after the gastric cancer cell transplantation [6]: all died
mice alive seven weeks after the gastric cancer cell transplantation [6]: one
t-test for numbers of mice alive 11 weeks after transplantation compared with the control group [6]: significant differences
inhibition of ErbB4 (HER4) (ErbB4 (HER4)): inhibitory activities
tumor growth in mice transplanted with non-small cell lung cancer with EGFR EX20Ins mutation [7]: inhibit
inhibition of EGFR (ErbB1) (EGFR (ErbB1)): inhibitory activities
concentration at which HGF-induced cell growth of GCR-1 was inhibited (GCR-1): ≥ 0.3 µM
inhibition of ErbB2 (HER2) (ErbB2 (HER2)): inhibitory activities
inhibitory activity against mutant EGFR (mutant EGFR): inhibitory activity
concentration at which cell growth of MKN45 was inhibited (MKN45): ≥ 1 µM
HB-EGF-induced cell growth of GCIY (GCIY): inhibited
HGF-induced cell growth of GCIY (GCIY): inhibited
amphiregulin-induced cell growth of GCIY (GCIY): inhibited
baseline cell growth of GCIY (GCIY): inhibited
HB-EGF-induced cell growth of NUGC4 (NUGC4): inhibited
HGF-induced cell growth of NUGC4 (NUGC4): inhibited
amphiregulin-induced cell growth of NUGC4 (NUGC4): inhibited
concentration at which HGF-induced cell growth of MKN7 was inhibited (MKN7): ≥ 0.3 µM

CC(C)(O)CC(=O)NCCn1ccc2ncnc(Nc3ccc(Oc4cccc(C(F)(F)F)c4)c(Cl)c3)c21 [TAK-285, N-(2-(4-(3-chloro-4-(3-(trifluoromethyl)phenoxy)phenylamino)-5H-pyrrolo[3,2-d]pyrimidin-5-yl)ethyl)-3-hydroxy-3-methylbutanamide]
inhibition of ErbB4 (HER4) (ErbB4 (HER4)): inhibit
inhibition of ErbB2 (HER2) (ErbB2 (HER2)): inhibit

COc1cc2ncnc(Nc3ccc(F)c(Cl)c3)c2cc1NC(=O)/C=C/CN1CCCCC1 [dacomitinib]
inhibition of ErbB4 (HER4) (ErbB4 (HER4)): inhibit
inhibition of EGFR (ErbB1) (EGFR (ErbB1)): inhibit
inhibition of ErbB2 (HER2) (ErbB2 (HER2)): inhibit

CS(=O)(=O)CCNCc1ccc(-c2ccc3ncnc(Nc4ccc(OCc5cccc(F)c5)c(Cl)c4)c3c2)o1 [lapatinib]
inhibition of ErbB4 (HER4) (ErbB4 (HER4)): inhibit
inhibition of ErbB2 (HER2) (ErbB2 (HER2)): inhibit

C=CC(=O)Nc1cc(Nc2nccc(-c3cn(C)c4ccccc34)n2)c(OC)cc1N(C)CCN(C)C [osimertinib, 2-propenamide, N-[2-[[2-(dimethylamino)ethyl]methylamino]-4-methoxy-5-[[4-(1-methyl-1H-indol-3-yl)-2-pyrimidinyl]amino]phenyl]-]
mice alive 11 weeks after the gastric cancer cell transplantation [6]: 2 mice
t-test for numbers of mice alive 11 weeks after transplantation compared with the control group [6]: significant differences
inhibition of ErbB4 (HER4) (ErbB4 (HER4)): inhibitory activities
tumor growth in mice transplanted with non-small cell lung cancer with EGFR EX20Ins mutation [7]: inhibit
inhibition of ErbB2 (HER2) (ErbB2 (HER2)): inhibitory activities
inhibitory activity against mutant EGFR (mutant EGFR): inhibitory activity

C=CC(=O)N1CCC(Oc2cc3c(Nc4ccc(Cl)c(Cl)c4F)ncnc3cc2OC)CC1 [poziotinib, 1-(4-(4-(3,4-dichloro-2-fluorophenylamino)-7-methoxyquinazolin-6-yloxy)piperidin-1-yl)prop-2-en-1-one]
inhibition of ErbB4 (HER4) (ErbB4 (HER4)): inhibit
inhibition of EGFR (ErbB1) (EGFR (ErbB1)): inhibit
inhibition of ErbB2 (HER2) (ErbB2 (HER2)): inhibit

C[C@@H](c1ccc2nccn2c1)n1nnc2ncc(-c3cnn(C)c3)nc21 [savolitinib]
mice alive 11 weeks after the gastric cancer cell transplantation [6]: all died
mice alive seven weeks after the gastric cancer cell transplantation [6]: 2 mice
t-test for numbers of mice alive 11 weeks after transplantation compared with the control group [6]: no significant difference
